According to ChEMBL document CHEMBL3217570, “A class of novel AA-Trp-Trp-OBzl: synthesis, in vitro anti-proliferation, in vivo anti-tumor action, and intercalation mechanism” (Medchemcomm, 2011):
Residues, ends and D or L forms follow the SMILES beside them. *: point of attachment. OBn = c1ccc(CO*)cc1

Columns and labels:
Mus musculus [1] = experiment: Toxicity in mouse S180 cells allografted ICR mouse assessed as increase of body weight at 8.9 mg/kg, ip qd for 7 days relative to control; format: organism-based, CCRF S-180; parameters: dose 8.9 mg/kg, route intraperitoneal; conditions: in vivo, 168 h
H22 = experiment: Antiproliferative activity against mouse H22 cells after 48 hrs by MTT assay; format: functional, cell-based; conditions: H22, 48 h
Mus musculus [2] = experiment: Toxicity in mouse S180 cells allografted ICR mouse assessed as brain weight at 8.9 mg/kg, ip qd for 7 days relative to control; format: organism-based, CCRF S-180; parameters: dose 8.9 mg/kg, route intraperitoneal; conditions: in vivo, 168 h
K562 = experiment: Antiproliferative activity against human K562 cells after 48 hrs by MTT assay; format: functional, cell-based; conditions: K562, 48 h
Mus musculus [3] = experiment: Toxicity in mouse S180 cells allografted ICR mouse assessed as kidney weight at 8.9 mg/kg, ip qd for 7 days relative to control; format: organism-based, CCRF S-180; parameters: dose 8.9 mg/kg, route intraperitoneal; conditions: in vivo, 168 h
B16 = experiment: Antiproliferative activity against mouse B16 cells after 48 hrs by MTT assay; format: functional, cell-based; conditions: B16, 48 h
CCRF S-180 [4] = experiment: Antiproliferative activity against mouse S180 cells after 48 hrs by MTT assay; format: functional, cell-based; conditions: CCRF S-180, 48 h
Mus musculus [5] = experiment: Toxicity in mouse S180 cells allografted ICR mouse assessed as liver weight at 8.9 mg/kg, ip qd for 7 days relative to control; format: organism-based, CCRF S-180; parameters: dose 8.9 mg/kg, route intraperitoneal; conditions: in vivo, 168 h
CCRF S-180 [6] = experiment: Antitumor activity against mouse S180 cells allografted in ICR mouse assessed as tumor growth inhibition at 8.9 mg/kg, ip qd for 7 days relative to control; format: functional; conditions: CCRF S-180, ip, 168 h, route intraperitoneal, read-out: TGI
HepG2 = experiment: Antiproliferative activity against human HepG2 cells after 48 hrs by MTT assay; format: functional, cell-based; conditions: HepG2, 48 h
Mus musculus [7] = experiment: Toxicity in mouse S180 cells allografted ICR mouse assessed as spleen index at 8.9 mg/kg, ip qd for 7 days relative to control; format: organism-based, CCRF S-180; parameters: dose 8.9 mg/kg, route intraperitoneal; conditions: in vivo, 168 h
Mus musculus [8] = experiment: Toxicity in ICR mouse assessed as mortality up to 500 mg/kg, ip after 7 days; format: organism-based; parameters: dose 500 mg/kg, route intraperitoneal; conditions: in vivo, 168 h
[9] = Acute toxicity in ip dosed ICR mouse after 7 days; format: organism-based; conditions: in vivo
Mus musculus [10] = experiment: Neurotoxicity in ICR mouse assessed as neurotoxic behavior up to 500 mg/kg, ip after 7 days; format: toxicity, organism-based; parameters: dose 500 mg/kg, route intraperitoneal; conditions: in vivo, 168 h
Mus musculus [11] = experiment: Toxicity in ICR mouse assessed as changes in organs up to 500 mg/kg, ip after 7 days by necropsy analysis; format: organism-based; parameters: dose 500 mg/kg, route intraperitoneal; conditions: in vivo, 168 h

Structure (SMILES)	Activity (Mus musculus [1])	IC50 (H22)	Activity (Mus musculus [2])	IC50 (K562)	Activity (Mus musculus [3])	IC50 (B16)	IC50 (CCRF S-180 [4])	Activity (Mus musculus [5])	inhibition in vivo at 8.9 mg/kg (CCRF S-180 [6])	IC50 (HepG2)	Activity (Mus musculus [7])	Activity (Mus musculus [8])	LD50 at 168 h [9]	Activity (Mus musculus [10])	Activity (Mus musculus [11])
C[C@H](N)C(=O)N[C@@H](Cc1c[nH]c2ccccc12)C(=O)N[C@@H](Cc1c[nH]c2ccccc12)C(=O)OCc1ccccc1 (H-Ala-Trp-Trp-OBn)	Toxic	84.9 µM	Non-toxic	116 µM	Non-toxic	132 µM	72.7 µM	Non-toxic	-11.4%	49.9 µM	Non-toxic				
N=C(N)NCCC[C@H](N)C(=O)N[C@@H](Cc1c[nH]c2ccccc12)C(=O)N[C@@H](Cc1c[nH]c2ccccc12)C(=O)OCc1ccccc1 (H-Arg-Trp-Trp-OBn)	Toxic	27.5 µM	Non-toxic	27.2 µM	Non-toxic	37.4 µM	29.4 µM	Non-toxic	45.1%	38.1 µM	Non-toxic	Non-toxic	> 500 mg/kg	Non-toxic	Non-toxic
N[C@@H](CC(=O)O)C(=O)N[C@@H](Cc1c[nH]c2ccccc12)C(=O)N[C@@H](Cc1c[nH]c2ccccc12)C(=O)OCc1ccccc1 (H-Asp-Trp-Trp-OBn)	Toxic	107 µM	Non-toxic	170 µM	Non-toxic	157 µM	164 µM	Non-toxic	-8.85%	122 µM	Non-toxic				
N[C@@H](CS)C(=O)N[C@@H](Cc1c[nH]c2ccccc12)C(=O)N[C@@H](Cc1c[nH]c2ccccc12)C(=O)OCc1ccccc1 (H-Cys-Trp-Trp-OBn)	Toxic	24.7 µM	Non-toxic	20.6 µM	Non-toxic	32.8 µM	26.2 µM	Non-toxic	48.4%	35 µM	Non-toxic	Non-toxic	> 500 mg/kg	Non-toxic	Non-toxic
NC(=O)CC[C@H](N)C(=O)N[C@@H](Cc1c[nH]c2ccccc12)C(=O)N[C@@H](Cc1c[nH]c2ccccc12)C(=O)OCc1ccccc1 (H-Gln-Trp-Trp-OBn)	Toxic	25.1 µM	Non-toxic	24.6 µM	Non-toxic	31.8 µM	27.6 µM	Non-toxic	43%	26.2 µM	Non-toxic	Non-toxic	> 500 mg/kg	Non-toxic	Non-toxic
N[C@@H](CCC(=O)O)C(=O)N[C@@H](Cc1c[nH]c2ccccc12)C(=O)N[C@@H](Cc1c[nH]c2ccccc12)C(=O)OCc1ccccc1 (H-Glu-Trp-Trp-OBn)	Toxic	14.7 µM	Non-toxic	14.3 µM	Non-toxic	21.4 µM	16.6 µM	Non-toxic	78.8%	22.3 µM	Non-toxic	Non-toxic	> 500 mg/kg	Non-toxic	Non-toxic
NCC(=O)N[C@@H](Cc1c[nH]c2ccccc12)C(=O)N[C@@H](Cc1c[nH]c2ccccc12)C(=O)OCc1ccccc1 (H-Gly-Trp-Trp-OBn)	Toxic	51.1 µM	Non-toxic	88.6 µM	Non-toxic	159 µM	79.9 µM	Non-toxic	-6.51%	58.3 µM	Non-toxic				
N[C@@H](Cc1cnc[nH]1)C(=O)N[C@@H](Cc1c[nH]c2ccccc12)C(=O)N[C@@H](Cc1c[nH]c2ccccc12)C(=O)OCc1ccccc1 (H-His-Trp-Trp-OBn)	Toxic	95.5 µM	Non-toxic	101 µM	Non-toxic	100 µM	83.3 µM	Non-toxic	11.9%	97.2 µM	Non-toxic				
CC(C)C[C@H](N)C(=O)N[C@@H](Cc1c[nH]c2ccccc12)C(=O)N[C@@H](Cc1c[nH]c2ccccc12)C(=O)OCc1ccccc1 (H-Leu-Trp-Trp-OBn)	Toxic	36 µM	Non-toxic	37.9 µM	Non-toxic	53.4 µM	36.7 µM	Non-toxic	13.8%	41.5 µM	Non-toxic				
NCCCC[C@H](N)C(=O)N[C@@H](Cc1c[nH]c2ccccc12)C(=O)N[C@@H](Cc1c[nH]c2ccccc12)C(=O)OCc1ccccc1 (H-Lys-Trp-Trp-OBn)	Toxic	33 µM	Non-toxic	34.5 µM	Non-toxic	57.4 µM	33 µM	Non-toxic	15%	25.9 µM	Non-toxic				
O=C(N[C@@H](Cc1c[nH]c2ccccc12)C(=O)N[C@@H](Cc1c[nH]c2ccccc12)C(=O)OCc1ccccc1)[C@@H]1CCCN1 (H-Pro-Trp-Trp-OBn)	Toxic	91.5 µM	Non-toxic	91.8 µM	Non-toxic	94 µM	76 µM	Non-toxic	12.5%	91.7 µM	Non-toxic				
C[C@@H](O)[C@H](N)C(=O)N[C@@H](Cc1c[nH]c2ccccc12)C(=O)N[C@@H](Cc1c[nH]c2ccccc12)C(=O)OCc1ccccc1 (H-Thr-Trp-Trp-OBn)	Toxic	153 µM	Non-toxic	173 µM	Non-toxic	182 µM	155 µM	Non-toxic	-7.66%	155 µM	Non-toxic				
N[C@@H](Cc1c[nH]c2ccccc12)C(=O)N[C@@H](Cc1c[nH]c2ccccc12)C(=O)N[C@@H](Cc1c[nH]c2ccccc12)C(=O)OCc1ccccc1 (H-Trp-Trp-Trp-OBn)	Toxic	106 µM	Non-toxic	164 µM	Non-toxic	162 µM	142 µM	Non-toxic	-19.1%	163 µM	Non-toxic				
